Measured values taken from ChEMBL document CHEMBL2429866, “New aminoadamantane derivatives with antiproliferative activity” (Med Chem Res, 2013).

Key:
COLO 205 = test: Cytotoxicity against human COLO205 cells after 48 hrs by SRB assay; assay type: functional; conditions: COLO 205, 48 h
PC-3 = test: Cytotoxicity against human PC3 cells after 48 hrs by SRB assay; assay type: functional; conditions: PC-3, 48 h
U-251 = test: Cytotoxicity against human U251 cells after 48 hrs by SRB assay; assay type: functional; conditions: U-251, 48 h
NCI-H460 = test: Cytotoxicity against human NCI-H460 cells after 48 hrs by SRB assay; assay type: functional; conditions: NCI-H460, 48 h
DU-145 = test: Cytotoxicity against human DU145 cells after 48 hrs by SRB assay; assay type: functional; conditions: DU-145, 48 h
MCF7 = test: Cytotoxicity against human MCF7 cells after 48 hrs by SRB assay; assay type: functional; conditions: MCF7, 48 h
SF-268 = test: Cytotoxicity against human SF268 cells after 48 hrs by SRB assay; assay type: functional; conditions: SF-268, 48 h
OVCAR-5 = test: Cytotoxicity against human OVCAR5 cells after 48 hrs by SRB assay; assay type: functional; conditions: OVCAR-5, 48 h
A549 = test: Cytotoxicity against human A549 cells after 48 hrs by SRB assay; assay type: functional; conditions: A549, 48 h
[1] = Cytotoxicity against human EKVX cells after 48 hrs by SRB assay; assay type: functional
[2] = Cytotoxicity against human MSC cells after 48 hrs by SRB assay; assay type: cell-based; conditions: for GI50 at 48 h: MSC cells; for TGI: msc, 48 h
[3] = Cytotoxicity against human CAKI cells after 48 hrs by SRB assay; assay type: functional
[4] = Cytotoxicity against human NCI-ADR-RES cells after 48 hrs by SRB assay; assay type: functional
IGROV-1 = test: Cytotoxicity against human IGROV1 cells after 48 hrs by SRB assay; assay type: functional; conditions: IGROV-1, 48 h
HCT-116 = test: Cytotoxicity against human HCT116 cells after 48 hrs by SRB assay; assay type: functional; conditions: HCT-116, 48 h
MDA-MB-231 = test: Cytotoxicity against human MDA-MB-231 cells after 48 hrs by SRB assay; assay type: functional; conditions: MDA-MB-231, 48 h
DMS-114 = test: Cytotoxicity against human DMS114 cells after 48 hrs by SRB assay; assay type: functional; conditions: DMS-114, 48 h
SK-MEL-28 = test: Cytotoxicity against human SK-MEL-28 cells after 48 hrs by SRB assay; assay type: functional; conditions: SK-MEL-28, 48 h
HCT-15 = test: Cytotoxicity against human HCT15 cells after 48 hrs by SRB assay; assay type: functional; conditions: HCT-15, 48 h
[5] = (§1) Cytotoxicity against human NHDF cells after 48 hrs by SRB assay; assay type: cell-based; conditions: NHDF cells
NHDF = test: as §1; assay type: cell-based; conditions: nhdf, 48 h
LNCaP = test: Cytotoxicity against human LNCAP cells after 48 hrs by SRB assay; assay type: functional

Compound	GI50 (U-251)	TGI (U-251)	GI50 (NCI-H460)	TGI (NCI-H460)	GI50 (MCF7)	TGI (MCF7)	GI50 (SF-268)	TGI (SF-268)	GI50 (HCT-116)	TGI (HCT-116)	further results
NC1C2CC3CC(C2)CC1(c1ccccc1)C3 (stereo not drawn)	100 µM	100 µM	100 µM	100 µM	69.3 µM	100 µM	100 µM	100 µM			GI50 (COLO 205): 84.5 µM; TGI (COLO 205): 100 µM; GI50 (PC-3): 82.9 µM; TGI (PC-3): 89.3 µM; GI50 (DU-145): 100 µM; TGI (DU-145): 100 µM
Cl.NC1C2CC3CC(C2)CC1(Cc1ccccc1)C3 (stereo not drawn)					5.5 µM	9.5 µM	21 µM	56.8 µM	6.59 µM	35.8 µM	GI50 (OVCAR-5): 8.35 µM; TGI (OVCAR-5): 37.8 µM; GI50 (A549): 8.67 µM; TGI (A549): 43.7 µM; GI50 [1]: 6.94 µM; TGI [1]: 29.2 µM; GI50 (COLO 205): 7.12 µM; TGI (COLO 205): 33.2 µM; GI50 at 48 h [2]: 9.55 µM; TGI [2]: 45.56 µM; GI50 [3]: 6.54 µM; TGI [3]: 26.8 µM; GI50 (DU-145): 6.68 µM; TGI (DU-145): 29.8 µM; GI50 [4]: 6.7 µM; TGI [4]: 30 µM; GI50 (IGROV-1): 7.6 µM; TGI (IGROV-1): 36.5 µM; GI50 (MDA-MB-231): 6.68 µM; TGI (MDA-MB-231): 46.6 µM
Cl.NC1C2CC3CC(C2)CC1(Cc1ccc(F)cc1)C3 (stereo not drawn)	21.8 µM	50.9 µM	13.7 µM	52 µM	4.6 µM	8.7 µM	7.83 µM	37.4 µM	5.6 µM	17.5 µM	GI50 (DMS-114): 9.38 µM; TGI (DMS-114): 50.4 µM; GI50 (SK-MEL-28): 13.2 µM; TGI (SK-MEL-28): 45 µM; GI50 [4]: 7.4 µM; TGI [4]: 24.4 µM; GI50 (HCT-15): 19.4 µM; TGI (HCT-15): 53.8 µM; GI50 at 48 h [5]: 17.9 µM; TGI (NHDF): 52.8 µM
COc1ccc(CC23CC4CC(CC(C4)C2N)C3)cc1.Cl (stereo not drawn)	31.2 µM	58 µM	31.2 µM	62.4 µM	7.4 µM	42.3 µM	21.2 µM	50.7 µM	18.5 µM	52.2 µM	GI50 at 48 h [2]: 24.8 µM; TGI [2]: 56.05 µM; GI50 (DMS-114): 40.1 µM; TGI (DMS-114): 73.9 µM; GI50 (SK-MEL-28): 31.8 µM; TGI (SK-MEL-28): 60.7 µM; GI50 [4]: 29.3 µM; TGI [4]: 55.3 µM; GI50 (HCT-15): 38.8 µM; TGI (HCT-15): 75 µM; GI50 at 48 h [5]: 27.7 µM; TGI (NHDF): 58.8 µM
c1ccc2c(c1)CNC1C3CC4CC(C3)CC21C4 (stereo not drawn)			100 µM	100 µM	52 µM	100 µM	100 µM	100 µM	63.9 µM	100 µM	
CN(C)CCNC1C2CC3CC(C2)CC1(Cc1ccccc1)C3 (stereo not drawn)					25.9 µM	54.1 µM	29.3 µM	57.1 µM	24 µM	55.9 µM	GI50 (COLO 205): 25.4 µM; TGI (COLO 205): 59.9 µM; GI50 (LNCaP): 24.4 µM; TGI (LNCaP): 54.7 µM; GI50 (DMS-114): 26.5 µM; TGI (DMS-114): 58.1 µM
c1ccc(CC23CC4CC(CC(C4)C2NCCN2CCCCC2)C3)cc1 (stereo not drawn)			6.32 µM	32.2 µM	6.75 µM	33.2 µM	13.1 µM	45.9 µM	9.94 µM	51.7 µM	
c1ccc(CC23CC4CC(CC(C4)C2NCCN2CCNCC2)C3)cc1 (stereo not drawn)			7.49 µM	46.8 µM	21.1 µM	52.7 µM	22.2 µM	53.6 µM	7.02 µM	50 µM	
CN(C)CCCNC1C2CC3CC(C2)CC1(Cc1ccccc1)C3 (stereo not drawn)			5.78 µM	25.8 µM	9.11 µM	42.9 µM	9.09 µM	40.9 µM	6.76 µM	34.8 µM	
c1ccc(CC23CC4CC(CC(C4)C2NCCCN2CCOCC2)C3)cc1 (stereo not drawn)			50.7 µM	100 µM	28.9 µM	58.5 µM	56.4 µM	100 µM	44 µM	100 µM	
c1ccc(CC23CC4CC(CC(C4)C2NCCCn2ccnc2)C3)cc1 (stereo not drawn)			31.5 µM	67.5 µM	27 µM	56.1 µM	28.8 µM	62.8 µM	26.8 µM	64.7 µM	
N[C@H]1c2ccccc2C23CC4CC(CC(C4)[C@H]12)C3 (relative stereo)	31.2 µM	56.2 µM			32.6 µM	62.5 µM					GI50 (COLO 205): 35 µM; TGI (COLO 205): 69.9 µM; GI50 (LNCaP): 28.5 µM; TGI (LNCaP): 61.2 µM; GI50 (DU-145): 26.6 µM; TGI (DU-145): 37.6 µM
N[C@@H]1c2ccccc2C23CC4CC(CC(C4)[C@H]12)C3 (relative stereo)	33 µM	56.6 µM									GI50 (PC-3): 21.3 µM; TGI (PC-3): 56.7 µM; GI50 (DU-145): 31.4 µM; TGI (DU-145): 66.1 µM
COc1cc([C@@H]2c3cc4c(cc3[C@@H](O[C@@H]3O[C@@H]5CO[C@@H](C)O[C@H]5[C@H](O)[C@H]3O)[C@H]3COC(=O)[C@H]23)OCO4)cc(OC)c1O [ETOPOSIDE]							4.21 µM	92.7 µM			
O=c1[nH]cc(F)c(=O)[nH]1 [FLUOROURACIL]			5.95 µM	> 100 µM	8.4 µM	> 100 µM	49.2 µM	> 100 µM	9.51 µM	> 100 µM	
